Key:
[1] = molecular target: Interleukin-1 receptor-associated kinase 3 (Homo sapiens) (UniProt Q9Y616); details: Compound concentration 1000.0 nM
[2] = system: Receptor-type tyrosine-protein kinase FLT3 (Homo sapiens), P36888 [R834Q]; details: Compound concentration 1000.0 nM
[3] = system: Tyrosine-protein kinase ABL1 (Homo sapiens), P00519 [F317L]; details: Compound concentration 1000.0 nM
[4] = molecular target: Sodium-dependent dopamine transporter (Homo sapiens, UniProt Q01959); details: Compound concentration 10.0 uM
[5] = molecular target: AP2-associated protein kinase 1 (Homo sapiens) (UniProt Q2M2I8); details: Compound concentration 1000.0 nM
[6] = molecular target: 1-phosphatidylinositol 3-phosphate 5-kinase (Homo sapiens) (UniProt Q9Y2I7); details: Compound concentration 1000.0 nM
[7] = molecular target: T1, Alpha-1A adrenergic receptor (Homo sapiens) (UniProt P35348); details: Compound concentration 10.0 uM
T1 sequence (whole entry): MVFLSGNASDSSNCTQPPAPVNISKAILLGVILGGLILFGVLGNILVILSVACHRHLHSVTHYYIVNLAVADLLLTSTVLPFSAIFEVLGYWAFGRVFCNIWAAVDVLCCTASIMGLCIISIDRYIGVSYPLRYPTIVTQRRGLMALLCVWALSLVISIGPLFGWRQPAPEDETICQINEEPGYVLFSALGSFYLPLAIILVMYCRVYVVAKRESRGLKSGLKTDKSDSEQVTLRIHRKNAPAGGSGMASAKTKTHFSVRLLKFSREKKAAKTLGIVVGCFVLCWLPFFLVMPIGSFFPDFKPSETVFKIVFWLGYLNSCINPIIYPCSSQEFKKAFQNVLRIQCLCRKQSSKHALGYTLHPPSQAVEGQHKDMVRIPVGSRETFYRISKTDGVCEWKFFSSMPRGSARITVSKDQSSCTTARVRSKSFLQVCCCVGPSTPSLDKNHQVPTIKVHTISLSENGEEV

[8] = molecular target: Serine/threonine-protein kinase NLK (Homo sapiens) (UniProt Q9UBE8); details: Compound concentration 1000.0 nM
[9] = molecular target: GABA-A receptor; anion channel (Rattus norvegicus) (UniProt O09028+P15431+P18506+P18508+P19969+P20236+P23574+P23576+P28471+P28473+P30191+P62813+P63079+P63138+Q91ZM7+Q9ES14); details: Compound concentration 10.0 uM
[10] = molecular target: Mitogen-activated protein kinase 6 (Homo sapiens) (UniProt Q16659); details: Compound concentration 1000.0 nM
[11] = molecular target: Ribosomal protein S6 kinase alpha-5 (Homo sapiens) (UniProt O75582); details: Compound concentration 1000.0 nM
[12] = molecular target: Serine/threonine-protein kinase LATS2 (Homo sapiens) (UniProt Q9NRM7); details: Compound concentration 1000.0 nM
[13] = system: Receptor-type tyrosine-protein kinase FLT3 (Homo sapiens), P36888 [K663Q]; details: Compound concentration 1000.0 nM
[14] = molecular target: Ribosomal protein S6 kinase alpha-4 (Homo sapiens) (UniProt O75676); details: Compound concentration 1000.0 nM
[15] = system: Mast/stem cell growth factor receptor Kit (Homo sapiens), P10721 [V559D,T670I]; details: Compound concentration 1000.0 nM
[16] = molecular target: Protein-tyrosine kinase 6 (Homo sapiens) (UniProt Q13882); details: Compound concentration 1000.0 nM
[17] = molecular target: Serine/threonine-protein kinase 32A (Homo sapiens) (UniProt Q8WU08); details: Compound concentration 1000.0 nM
[18] = molecular target: Mitogen-activated protein kinase 12 (Homo sapiens) (UniProt P53778); details: Compound concentration 1000.0 nM
[19] = molecular target: Transient receptor potential cation channel subfamily M member 6 (Homo sapiens) (UniProt Q9BX84); details: Compound concentration 1000.0 nM
[20] = molecular target: Bone morphogenetic protein receptor type-1A (Homo sapiens) (UniProt P36894); details: Compound concentration 1000.0 nM
[21] = molecular target: Serine/threonine-protein kinase D2 (Homo sapiens) (UniProt Q9BZL6); details: Compound concentration 1000.0 nM
[22] = molecular target: Cyclin-dependent kinase 3 (Homo sapiens) (UniProt Q00526); details: Compound concentration 1000.0 nM
[23] = molecular target: Tyrosine-protein kinase JAK2 (Homo sapiens) (UniProt O60674); details: Compound concentration 1000.0 nM
[24] = system: Tyrosine-protein kinase ABL1 (Homo sapiens), P00519 [Q252H]; details: Compound concentration 1000.0 nM
[25] = system: Tyrosine-protein kinase ABL1 (Homo sapiens), P00519 [E255K]; details: Compound concentration 1000.0 nM
[26] = system: Epidermal growth factor receptor (Homo sapiens), P00533 [G719C]; details: Compound concentration 1000.0 nM
[27] = molecular target: Serine/threonine-protein kinase PLK2 (Homo sapiens) (UniProt Q9NYY3); details: Compound concentration 1000.0 nM
[28] = molecular target: Ribosomal protein S6 kinase alpha-4 (Homo sapiens) (UniProt O75676); details: Compound concentration 1000.0 nM; remark: listed apart in the source
[29] = molecular target: Casein kinase I isoform alpha (Homo sapiens) (UniProt P48729); details: Compound concentration 1000.0 nM
[30] = molecular target: Macrophage colony-stimulating factor 1 receptor (Homo sapiens) (UniProt P07333); details: Compound concentration 1000.0 nM
[31] = molecular target: Myotonin-protein kinase (Homo sapiens) (UniProt Q09013); details: Compound concentration 1000.0 nM
[32] = molecular target: Protein kinase C eta type (Homo sapiens) (UniProt P24723); details: Compound concentration 1000.0 nM
[33] = molecular target: Phosphatidylinositol 3-kinase catalytic subunit type 3 (Homo sapiens) (UniProt Q8NEB9); details: Compound concentration 1000.0 nM
[34] = molecular target: Interferon-induced, double-stranded RNA-activated protein kinase (Homo sapiens) (UniProt P19525); details: Compound concentration 1000.0 nM
[35] = system: Proto-oncogene tyrosine-protein kinase receptor Ret (Homo sapiens), P07949 [V804M]; details: Compound concentration 1000.0 nM
[36] = molecular target: Inhibitor of nuclear factor kappa-B kinase subunit epsilon (Homo sapiens) (UniProt Q14164); details: Compound concentration 1000.0 nM
[37] = system: Tyrosine-protein kinase ABL1 (Homo sapiens), P00519 [Y253F]; details: Compound concentration 1000.0 nM

Sequence of Ribosomal protein S6 kinase alpha-4 (Homo sapiens) (O75676 whole entry, looked up, canonical isoform): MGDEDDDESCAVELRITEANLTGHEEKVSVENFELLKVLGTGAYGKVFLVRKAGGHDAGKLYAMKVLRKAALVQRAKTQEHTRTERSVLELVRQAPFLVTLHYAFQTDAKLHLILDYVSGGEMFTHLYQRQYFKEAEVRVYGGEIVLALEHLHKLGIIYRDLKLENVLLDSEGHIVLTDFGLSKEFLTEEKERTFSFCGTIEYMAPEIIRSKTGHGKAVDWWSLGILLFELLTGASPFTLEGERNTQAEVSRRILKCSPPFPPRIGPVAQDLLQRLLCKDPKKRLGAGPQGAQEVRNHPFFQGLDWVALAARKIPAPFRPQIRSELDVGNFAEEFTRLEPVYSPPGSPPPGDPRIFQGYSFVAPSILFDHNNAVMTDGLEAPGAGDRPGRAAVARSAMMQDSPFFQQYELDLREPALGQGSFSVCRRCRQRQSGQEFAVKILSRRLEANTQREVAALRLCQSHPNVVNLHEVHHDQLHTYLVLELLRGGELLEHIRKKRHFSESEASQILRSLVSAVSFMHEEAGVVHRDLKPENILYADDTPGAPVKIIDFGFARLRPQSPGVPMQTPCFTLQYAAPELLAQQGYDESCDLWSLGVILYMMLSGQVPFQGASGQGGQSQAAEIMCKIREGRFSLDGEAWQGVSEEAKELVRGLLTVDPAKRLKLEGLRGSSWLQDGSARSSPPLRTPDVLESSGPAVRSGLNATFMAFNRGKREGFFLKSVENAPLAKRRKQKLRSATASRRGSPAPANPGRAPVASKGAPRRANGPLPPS
Sequence of Ribosomal protein S6 kinase alpha-5 (Homo sapiens) (O75582 whole entry, looked up): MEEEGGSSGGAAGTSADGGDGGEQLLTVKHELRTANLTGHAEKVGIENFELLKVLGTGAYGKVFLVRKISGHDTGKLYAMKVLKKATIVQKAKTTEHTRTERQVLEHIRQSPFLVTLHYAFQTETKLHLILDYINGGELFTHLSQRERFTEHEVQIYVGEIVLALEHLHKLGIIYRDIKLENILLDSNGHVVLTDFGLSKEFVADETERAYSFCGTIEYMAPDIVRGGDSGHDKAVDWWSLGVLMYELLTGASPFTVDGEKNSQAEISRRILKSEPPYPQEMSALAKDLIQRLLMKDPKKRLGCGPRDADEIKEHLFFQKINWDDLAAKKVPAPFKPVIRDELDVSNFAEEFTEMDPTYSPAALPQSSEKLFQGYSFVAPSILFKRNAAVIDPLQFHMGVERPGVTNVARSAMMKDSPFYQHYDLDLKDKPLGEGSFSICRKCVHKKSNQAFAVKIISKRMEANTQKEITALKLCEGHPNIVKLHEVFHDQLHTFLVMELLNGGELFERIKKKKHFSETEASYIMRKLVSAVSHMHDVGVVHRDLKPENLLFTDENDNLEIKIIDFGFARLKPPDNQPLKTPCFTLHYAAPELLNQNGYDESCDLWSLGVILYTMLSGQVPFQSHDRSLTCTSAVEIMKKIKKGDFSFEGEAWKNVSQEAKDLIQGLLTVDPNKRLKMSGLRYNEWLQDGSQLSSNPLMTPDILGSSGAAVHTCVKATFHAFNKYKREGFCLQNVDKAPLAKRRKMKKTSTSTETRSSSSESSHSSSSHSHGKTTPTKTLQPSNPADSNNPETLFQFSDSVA
Sequence of Interferon-induced, double-stranded RNA-activated protein kinase (Homo sapiens) (P19525 whole entry): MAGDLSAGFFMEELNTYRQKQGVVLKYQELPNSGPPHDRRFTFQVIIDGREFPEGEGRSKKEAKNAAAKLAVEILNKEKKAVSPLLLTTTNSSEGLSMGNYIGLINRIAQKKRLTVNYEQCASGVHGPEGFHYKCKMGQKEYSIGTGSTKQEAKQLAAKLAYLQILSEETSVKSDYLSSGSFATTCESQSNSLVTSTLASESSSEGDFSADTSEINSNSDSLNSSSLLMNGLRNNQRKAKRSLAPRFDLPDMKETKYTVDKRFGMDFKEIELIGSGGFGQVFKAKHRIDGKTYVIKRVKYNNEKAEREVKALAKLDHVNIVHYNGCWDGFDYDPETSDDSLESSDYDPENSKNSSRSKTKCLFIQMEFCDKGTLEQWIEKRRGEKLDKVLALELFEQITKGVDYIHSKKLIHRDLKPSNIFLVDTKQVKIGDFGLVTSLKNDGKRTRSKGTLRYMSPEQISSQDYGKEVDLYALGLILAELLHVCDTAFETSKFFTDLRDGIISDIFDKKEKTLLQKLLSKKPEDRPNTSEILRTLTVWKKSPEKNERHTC
Sequence of Inhibitor of nuclear factor kappa-B kinase subunit epsilon (Homo sapiens) (Q14164 whole entry): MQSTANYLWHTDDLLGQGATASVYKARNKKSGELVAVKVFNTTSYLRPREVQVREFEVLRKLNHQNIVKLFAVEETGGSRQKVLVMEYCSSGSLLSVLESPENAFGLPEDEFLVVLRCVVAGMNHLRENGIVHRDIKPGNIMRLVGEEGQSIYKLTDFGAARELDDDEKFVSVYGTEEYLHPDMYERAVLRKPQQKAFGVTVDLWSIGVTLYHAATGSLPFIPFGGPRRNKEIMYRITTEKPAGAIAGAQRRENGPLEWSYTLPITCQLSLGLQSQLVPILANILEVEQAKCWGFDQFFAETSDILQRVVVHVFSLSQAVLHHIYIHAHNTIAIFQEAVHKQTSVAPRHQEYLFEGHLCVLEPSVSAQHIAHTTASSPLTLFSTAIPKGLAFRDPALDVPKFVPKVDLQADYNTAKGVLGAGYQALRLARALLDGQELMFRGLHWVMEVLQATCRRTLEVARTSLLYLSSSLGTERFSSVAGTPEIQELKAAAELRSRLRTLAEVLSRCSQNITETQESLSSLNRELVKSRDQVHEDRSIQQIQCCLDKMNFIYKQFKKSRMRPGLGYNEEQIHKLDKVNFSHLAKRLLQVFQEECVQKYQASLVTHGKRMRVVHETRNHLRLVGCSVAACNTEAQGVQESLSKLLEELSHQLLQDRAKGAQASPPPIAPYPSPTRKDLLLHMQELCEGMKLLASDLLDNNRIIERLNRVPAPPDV
Sequence of Phosphatidylinositol 3-kinase catalytic subunit type 3 (Homo sapiens) (Q8NEB9 whole entry): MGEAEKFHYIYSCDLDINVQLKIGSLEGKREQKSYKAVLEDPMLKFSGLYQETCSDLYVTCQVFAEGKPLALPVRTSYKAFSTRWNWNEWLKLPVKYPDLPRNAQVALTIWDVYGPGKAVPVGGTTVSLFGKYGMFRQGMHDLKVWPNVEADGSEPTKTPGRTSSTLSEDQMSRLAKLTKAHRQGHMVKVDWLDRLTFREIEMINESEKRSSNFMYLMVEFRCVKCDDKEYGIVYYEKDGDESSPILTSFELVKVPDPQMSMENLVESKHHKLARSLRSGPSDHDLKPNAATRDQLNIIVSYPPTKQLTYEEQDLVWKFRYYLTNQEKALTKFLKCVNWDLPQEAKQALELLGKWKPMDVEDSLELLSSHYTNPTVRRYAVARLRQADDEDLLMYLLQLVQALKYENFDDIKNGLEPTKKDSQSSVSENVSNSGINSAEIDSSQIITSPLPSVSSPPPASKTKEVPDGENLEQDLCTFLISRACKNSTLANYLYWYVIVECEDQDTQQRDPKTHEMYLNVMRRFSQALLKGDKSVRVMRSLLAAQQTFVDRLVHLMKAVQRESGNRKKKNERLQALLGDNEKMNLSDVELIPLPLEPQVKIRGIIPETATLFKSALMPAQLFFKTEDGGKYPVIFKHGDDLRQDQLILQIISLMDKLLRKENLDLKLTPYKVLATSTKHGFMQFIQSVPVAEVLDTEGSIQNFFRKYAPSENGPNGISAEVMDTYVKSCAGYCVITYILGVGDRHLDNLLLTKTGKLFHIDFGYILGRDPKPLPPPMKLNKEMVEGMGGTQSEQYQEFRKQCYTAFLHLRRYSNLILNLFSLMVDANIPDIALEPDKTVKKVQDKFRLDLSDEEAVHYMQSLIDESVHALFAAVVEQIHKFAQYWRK
Sequence of Mast/stem cell growth factor receptor Kit (Homo sapiens), P10721 [V559D,T670I] (P10721 whole entry V559D/T670I): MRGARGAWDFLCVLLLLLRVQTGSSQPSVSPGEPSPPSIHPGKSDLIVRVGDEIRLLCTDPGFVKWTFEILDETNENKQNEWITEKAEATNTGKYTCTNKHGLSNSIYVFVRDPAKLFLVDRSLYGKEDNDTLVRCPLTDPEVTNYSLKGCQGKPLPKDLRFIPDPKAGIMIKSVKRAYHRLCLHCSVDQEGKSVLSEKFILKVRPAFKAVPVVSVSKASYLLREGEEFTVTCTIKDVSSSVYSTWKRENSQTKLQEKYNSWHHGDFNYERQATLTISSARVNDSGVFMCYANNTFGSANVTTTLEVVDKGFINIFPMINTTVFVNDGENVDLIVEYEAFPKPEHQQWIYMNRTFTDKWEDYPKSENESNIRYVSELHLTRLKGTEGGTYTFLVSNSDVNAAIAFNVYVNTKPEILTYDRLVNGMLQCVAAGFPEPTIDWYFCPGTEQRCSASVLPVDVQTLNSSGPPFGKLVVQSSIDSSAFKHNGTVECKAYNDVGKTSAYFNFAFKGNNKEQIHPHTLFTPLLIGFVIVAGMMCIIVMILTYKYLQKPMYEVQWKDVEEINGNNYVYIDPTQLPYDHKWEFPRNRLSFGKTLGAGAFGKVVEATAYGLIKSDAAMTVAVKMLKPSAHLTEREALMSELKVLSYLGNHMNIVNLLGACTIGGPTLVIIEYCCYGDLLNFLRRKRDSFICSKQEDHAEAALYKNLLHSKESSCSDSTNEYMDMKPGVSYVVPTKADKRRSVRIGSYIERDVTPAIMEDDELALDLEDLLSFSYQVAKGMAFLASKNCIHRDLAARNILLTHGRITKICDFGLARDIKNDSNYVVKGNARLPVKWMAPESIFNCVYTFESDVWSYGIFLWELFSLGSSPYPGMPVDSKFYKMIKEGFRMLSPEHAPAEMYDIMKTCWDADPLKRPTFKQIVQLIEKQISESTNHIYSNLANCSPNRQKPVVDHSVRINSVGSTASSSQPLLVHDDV
Sequence of Casein kinase I isoform alpha (Homo sapiens) (P48729 2-337 limits assumed): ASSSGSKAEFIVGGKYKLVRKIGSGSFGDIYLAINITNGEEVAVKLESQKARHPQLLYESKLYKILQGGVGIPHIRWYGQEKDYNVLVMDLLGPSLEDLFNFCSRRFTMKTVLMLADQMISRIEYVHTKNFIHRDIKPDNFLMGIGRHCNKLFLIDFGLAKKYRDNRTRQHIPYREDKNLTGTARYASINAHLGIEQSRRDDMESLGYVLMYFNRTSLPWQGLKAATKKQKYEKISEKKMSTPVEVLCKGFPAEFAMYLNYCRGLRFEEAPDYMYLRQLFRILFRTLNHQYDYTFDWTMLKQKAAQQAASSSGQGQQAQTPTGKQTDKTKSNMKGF

CC(=O)N1CCC(c2ccc(C(=O)NC3=NCCN3)cc2C(F)(F)F)CC1 [BI 0054]
residual activity [1]: 100%
residual activity [2]: 100%
residual activity [3]: 87%
inhibition [4]: 87.3%
residual activity [5]: 100%
residual activity [6]: 88%
inhibition [7]: -5.1%
residual activity [8]: 100%
inhibition [9]: 25.3%
residual activity [10]: 100%
residual activity [11]: 100%
residual activity [12]: 91%
residual activity [13]: 100%
residual activity [14]: 81%
residual activity [15]: 100%
residual activity [16]: 88%
residual activity [17]: 100%
residual activity [18]: 55%
residual activity [19]: 90%
residual activity [20]: 100%
residual activity [21]: 100%
residual activity [22]: 100%
residual activity [23]: 100%
residual activity [24]: 88%
residual activity [25]: 82%
residual activity [26]: 100%
residual activity [27]: 80%
residual activity [28]: 100%
residual activity [29]: 76%
residual activity [30]: 100%
residual activity [31]: 100%
residual activity [32]: 100%
residual activity [33]: 88%
residual activity [34]: 100%
residual activity [35]: 100%
residual activity [36]: 71%
residual activity [37]: 90%

CC(=O)N1CCC(c2ccc(C(=O)NC(=N)N)cc2C(F)(F)F)CC1 [BI 9627]
residual activity [1]: 99%
residual activity [2]: 93%
residual activity [3]: 100%
inhibition [4]: 77.9%
residual activity [5]: 100%
residual activity [6]: 84%
inhibition [7]: 6.05%
residual activity [8]: 100%
inhibition [9]: 13.9%
residual activity [10]: 100%
residual activity [11]: 100%
residual activity [12]: 100%
residual activity [13]: 100%
residual activity [14]: 100%
residual activity [15]: 100%
residual activity [16]: 100%
residual activity [17]: 100%
residual activity [18]: 77%
residual activity [19]: 98%
residual activity [20]: 100%
residual activity [21]: 100%
residual activity [22]: 100%
residual activity [23]: 100%
residual activity [24]: 79%
residual activity [25]: 100%
residual activity [26]: 100%
residual activity [27]: 93%
residual activity [28]: 100%
residual activity [29]: 92%
residual activity [30]: 100%
residual activity [31]: 100%
residual activity [32]: 100%
residual activity [33]: 100%
residual activity [34]: 100%
residual activity [35]: 100%
residual activity [36]: 70%
residual activity [37]: 92%

— ChEMBL document CHEMBL4507279, “Data for DCP probe BI-9627” (2021)
